{"source": "ChEMBL document CHEMBL4507292", "about": "(2021)", "key": {"[1]": {"target": "L-type calcium channel, dihydropyridine site (Cav1.2 alpha-1C) (Homo sapiens, UniProt Q13936)", "sequence (Q13936 whole entry)": "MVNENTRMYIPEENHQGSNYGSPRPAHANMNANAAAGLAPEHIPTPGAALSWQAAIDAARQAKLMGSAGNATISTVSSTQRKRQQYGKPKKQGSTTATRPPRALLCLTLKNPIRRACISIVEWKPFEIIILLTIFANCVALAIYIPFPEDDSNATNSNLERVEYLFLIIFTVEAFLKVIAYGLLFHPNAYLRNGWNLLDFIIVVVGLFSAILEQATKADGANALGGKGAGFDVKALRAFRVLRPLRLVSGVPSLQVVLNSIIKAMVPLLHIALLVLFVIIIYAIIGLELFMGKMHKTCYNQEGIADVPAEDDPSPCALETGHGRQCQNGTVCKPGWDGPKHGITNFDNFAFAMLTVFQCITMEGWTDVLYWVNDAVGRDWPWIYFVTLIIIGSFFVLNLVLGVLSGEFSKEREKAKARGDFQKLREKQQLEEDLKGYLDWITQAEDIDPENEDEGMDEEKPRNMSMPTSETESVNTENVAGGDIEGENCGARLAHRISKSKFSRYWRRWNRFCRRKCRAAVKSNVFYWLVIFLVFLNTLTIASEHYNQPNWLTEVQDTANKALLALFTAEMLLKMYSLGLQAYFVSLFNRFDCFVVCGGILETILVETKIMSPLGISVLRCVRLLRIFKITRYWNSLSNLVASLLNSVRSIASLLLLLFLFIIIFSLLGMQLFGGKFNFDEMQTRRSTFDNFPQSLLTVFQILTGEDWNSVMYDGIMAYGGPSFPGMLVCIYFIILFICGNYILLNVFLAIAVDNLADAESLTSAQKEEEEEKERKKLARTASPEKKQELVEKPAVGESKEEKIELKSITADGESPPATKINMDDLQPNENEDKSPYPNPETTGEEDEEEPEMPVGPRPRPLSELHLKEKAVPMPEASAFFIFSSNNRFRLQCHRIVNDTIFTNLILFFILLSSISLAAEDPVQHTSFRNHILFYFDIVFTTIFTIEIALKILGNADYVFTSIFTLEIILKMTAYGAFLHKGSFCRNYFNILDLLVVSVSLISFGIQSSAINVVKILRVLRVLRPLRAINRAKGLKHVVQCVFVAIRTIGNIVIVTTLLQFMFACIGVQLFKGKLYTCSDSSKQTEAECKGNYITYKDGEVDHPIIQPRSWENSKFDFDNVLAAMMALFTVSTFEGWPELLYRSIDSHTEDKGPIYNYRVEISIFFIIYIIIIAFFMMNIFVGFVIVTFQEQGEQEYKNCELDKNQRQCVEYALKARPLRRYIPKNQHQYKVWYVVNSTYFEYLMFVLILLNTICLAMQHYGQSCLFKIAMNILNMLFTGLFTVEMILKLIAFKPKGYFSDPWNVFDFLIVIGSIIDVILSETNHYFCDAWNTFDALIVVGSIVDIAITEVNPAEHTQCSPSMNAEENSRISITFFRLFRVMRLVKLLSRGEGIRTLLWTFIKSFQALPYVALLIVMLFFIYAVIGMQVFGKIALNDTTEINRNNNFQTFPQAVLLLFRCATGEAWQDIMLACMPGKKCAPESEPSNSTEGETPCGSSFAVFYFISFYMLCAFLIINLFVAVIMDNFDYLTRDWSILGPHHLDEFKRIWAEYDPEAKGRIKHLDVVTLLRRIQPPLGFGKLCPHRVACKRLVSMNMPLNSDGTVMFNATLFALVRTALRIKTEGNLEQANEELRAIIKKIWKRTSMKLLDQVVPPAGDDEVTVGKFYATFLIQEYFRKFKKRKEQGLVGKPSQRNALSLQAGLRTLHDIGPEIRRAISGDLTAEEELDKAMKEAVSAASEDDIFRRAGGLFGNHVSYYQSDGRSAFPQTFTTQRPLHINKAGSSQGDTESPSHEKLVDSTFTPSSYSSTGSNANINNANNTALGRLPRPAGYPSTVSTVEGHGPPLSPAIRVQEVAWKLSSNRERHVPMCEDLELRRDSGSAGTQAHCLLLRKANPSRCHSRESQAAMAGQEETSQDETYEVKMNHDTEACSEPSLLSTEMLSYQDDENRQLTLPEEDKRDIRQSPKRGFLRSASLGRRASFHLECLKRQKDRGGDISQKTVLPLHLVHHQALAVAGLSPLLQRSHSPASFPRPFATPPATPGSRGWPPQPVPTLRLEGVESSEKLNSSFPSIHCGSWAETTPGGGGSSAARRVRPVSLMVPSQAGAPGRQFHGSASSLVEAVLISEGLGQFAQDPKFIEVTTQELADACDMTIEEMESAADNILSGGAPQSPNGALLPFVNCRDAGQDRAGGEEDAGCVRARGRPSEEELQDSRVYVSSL", "assay": "Inhibition of Calcium Channel L-Type, Dihydropyridine at 10 µM in the Eurofins-Panlabs radioligand binding assay (Eurofins_assay_214600)", "set-up": "ligand concentration 0.1 nM, non-specific ligand with concentration 1 µM Nitrendipine, incubation time 90 min, incubation temperature 25 °C", "conditions": "Wistar, rat, rat cerebral cortex preparation, probe [3H] Nitrendipine, 0.1 nM; compound concentration 10 uM; target entry is the homologue from another species; call rule not given here"}, "[2]": {"target": "T1, Cysteinyl leukotriene receptor 1 (Homo sapiens) (UniProt Q9Y271)", "T1 sequence (whole entry)": "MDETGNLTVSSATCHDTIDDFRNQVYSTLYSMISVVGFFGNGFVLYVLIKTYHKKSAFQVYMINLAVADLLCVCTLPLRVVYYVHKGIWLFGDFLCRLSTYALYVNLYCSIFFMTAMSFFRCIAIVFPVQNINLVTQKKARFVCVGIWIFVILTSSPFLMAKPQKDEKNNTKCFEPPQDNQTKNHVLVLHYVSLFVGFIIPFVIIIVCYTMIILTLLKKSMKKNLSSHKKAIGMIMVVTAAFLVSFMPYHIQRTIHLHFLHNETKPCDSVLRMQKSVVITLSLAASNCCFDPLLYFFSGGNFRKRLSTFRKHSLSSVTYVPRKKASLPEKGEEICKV", "assay": "(§1) Inhibition of Leukotriene, Cysteinyl CysLT1 at 10 µM in the Eurofins-Panlabs radioligand binding assay (Eurofins_assay_250460)", "set-up": "ligand concentration 0.3 nM, non-specific ligand with concentration 0.3 µM Leukotriene D4, incubation time 30 min, incubation temperature 25 °C"}, "[3]": {"target": "Cysteinyl leukotriene receptor 1 (Homo sapiens, UniProt Q9Y271)", "assay": "as §1", "set-up": "ligand concentration 0.3 nM, non-specific ligand with concentration 0.3 µM Leukotriene D4, incubation time 30 min, incubation temperature 25 °C"}, "[4]": {"target": "Neuropeptide Y receptor type 1 (Homo sapiens) (UniProt P25929)", "sequence (P25929 whole entry)": "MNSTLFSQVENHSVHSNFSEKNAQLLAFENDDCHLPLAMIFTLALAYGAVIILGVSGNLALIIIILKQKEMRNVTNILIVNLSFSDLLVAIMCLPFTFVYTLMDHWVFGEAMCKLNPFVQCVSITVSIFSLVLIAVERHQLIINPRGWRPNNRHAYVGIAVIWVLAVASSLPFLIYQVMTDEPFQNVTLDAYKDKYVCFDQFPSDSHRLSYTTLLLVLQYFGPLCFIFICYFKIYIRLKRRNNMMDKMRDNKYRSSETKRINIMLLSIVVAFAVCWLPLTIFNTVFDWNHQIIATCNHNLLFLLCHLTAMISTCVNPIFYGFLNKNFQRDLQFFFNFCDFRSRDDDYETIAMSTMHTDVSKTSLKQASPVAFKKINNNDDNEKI", "assay": "Inhibition of Neuropeptide Y Y1 at 10 µM in the Eurofins-Panlabs radioligand binding assay (Eurofins_assay_257010)"}, "[5]": {"target": "ATP-sensitive inward rectifier potassium channel 11 (Cricetulus griseus) (UniProt A0A3L7HHE1)", "sequence (A0A3L7HHE1 as listed by the source)": "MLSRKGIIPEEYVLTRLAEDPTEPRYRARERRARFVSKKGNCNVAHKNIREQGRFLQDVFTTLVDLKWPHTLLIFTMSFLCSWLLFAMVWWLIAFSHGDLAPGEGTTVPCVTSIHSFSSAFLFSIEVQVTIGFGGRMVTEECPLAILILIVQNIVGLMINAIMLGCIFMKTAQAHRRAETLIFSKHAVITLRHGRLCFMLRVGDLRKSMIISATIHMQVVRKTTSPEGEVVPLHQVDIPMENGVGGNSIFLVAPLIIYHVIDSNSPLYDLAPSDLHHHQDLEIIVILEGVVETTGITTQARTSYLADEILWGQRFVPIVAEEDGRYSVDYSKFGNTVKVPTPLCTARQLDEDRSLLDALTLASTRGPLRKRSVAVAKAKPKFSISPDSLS", "assay": "Inhibition of Potassium Channel [KATP] at 10 µM in the Eurofins-Panlabs radioligand binding assay (Eurofins_assay_265600)", "conditions": "Cricetinae; Compound concentration 10.0 uM"}, "[6]": {"target": "voltage-gated sodium channel, site 2 (Rattus norvegicus, UniProt F1LQQ7+O08562+O88420+O88457+P04774+P04775+P08104+P15389+P15390+Q62968)", "assay": "Inhibition of Sodium Channel, Site 2 at 10 µM in the Eurofins-Panlabs radioligand binding assay (Eurofins_assay_279510)", "format": "protein assay", "set-up": "ligand concentration 5 nM, non-specific ligand with concentration 100 µM Veratridine, incubation time 60 min, incubation temperature 37 °C", "conditions": "male, Wistar, rat whole brain (except cerebellum) membranes, probe [3H] Batrachotoxinin, 5 nM, compound concentration 10 uM"}, "[7]": {"target": "Interstitial collagenase (Homo sapiens) (UniProt P03956)", "sequence (P03956 whole entry)": "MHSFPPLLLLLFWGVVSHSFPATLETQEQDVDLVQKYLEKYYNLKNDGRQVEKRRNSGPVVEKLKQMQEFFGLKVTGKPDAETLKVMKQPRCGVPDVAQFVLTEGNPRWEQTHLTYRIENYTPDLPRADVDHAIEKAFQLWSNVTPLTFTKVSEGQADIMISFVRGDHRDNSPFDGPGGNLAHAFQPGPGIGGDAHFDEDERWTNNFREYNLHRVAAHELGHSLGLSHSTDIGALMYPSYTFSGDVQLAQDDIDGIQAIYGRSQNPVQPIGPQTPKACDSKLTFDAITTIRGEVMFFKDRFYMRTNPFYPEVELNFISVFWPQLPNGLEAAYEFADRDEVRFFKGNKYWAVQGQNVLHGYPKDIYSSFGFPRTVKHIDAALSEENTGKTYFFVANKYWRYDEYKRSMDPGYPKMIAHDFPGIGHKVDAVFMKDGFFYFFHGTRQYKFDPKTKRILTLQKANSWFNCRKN", "assay": "Inhibition of Peptidase, Matrix Metalloproteinase-1 (MMP-1) at 10 µM in the Eurofins-Panlabs enzyme assay (Eurofins_assay_114110)", "conditions": "Compound concentration 10.0 uM"}, "[8]": {"target": "T2, Alpha-2C adrenergic receptor (Homo sapiens) (UniProt P18825)", "T2 sequence (whole entry)": "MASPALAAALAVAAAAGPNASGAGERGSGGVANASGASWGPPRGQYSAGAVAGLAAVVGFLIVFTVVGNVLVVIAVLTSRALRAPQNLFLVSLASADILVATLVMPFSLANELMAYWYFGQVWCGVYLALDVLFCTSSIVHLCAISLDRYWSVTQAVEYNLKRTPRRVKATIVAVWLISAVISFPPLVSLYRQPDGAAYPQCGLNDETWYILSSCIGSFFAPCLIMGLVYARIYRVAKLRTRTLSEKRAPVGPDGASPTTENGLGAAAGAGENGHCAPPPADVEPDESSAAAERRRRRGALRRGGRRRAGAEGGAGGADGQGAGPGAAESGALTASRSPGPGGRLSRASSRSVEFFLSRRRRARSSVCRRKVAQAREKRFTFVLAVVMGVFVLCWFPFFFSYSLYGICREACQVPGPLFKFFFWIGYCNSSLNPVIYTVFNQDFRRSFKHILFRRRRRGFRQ", "assay": "(§2) Adrenergic alpha2C Eurofins-Panlabs radioligand binding assay", "set-up": "ligand concentration 1 nM, non-specific ligand with concentration 10 µM WB-4101, incubation time 60 min, incubation temperature 25 °C"}, "[9]": {"target": "Alpha-2C adrenergic receptor (Homo sapiens, UniProt P18825)", "assay": "as §2", "set-up": "ligand concentration 1 nM, non-specific ligand with concentration 10 µM WB-4101, incubation time 60 min, incubation temperature 25 °C"}, "[10]": {"assay": "Inhibition of Atrial Natriuretic Factor (ANF) at 10 µM in the Eurofins-Panlabs radioligand binding assay (Eurofins_assay_211000)", "conditions": "Cavia porcellus"}, "[11]": {"target": "T3, Muscarinic acetylcholine receptor M5 (Homo sapiens) (UniProt P08912)", "T3 sequence (whole entry)": "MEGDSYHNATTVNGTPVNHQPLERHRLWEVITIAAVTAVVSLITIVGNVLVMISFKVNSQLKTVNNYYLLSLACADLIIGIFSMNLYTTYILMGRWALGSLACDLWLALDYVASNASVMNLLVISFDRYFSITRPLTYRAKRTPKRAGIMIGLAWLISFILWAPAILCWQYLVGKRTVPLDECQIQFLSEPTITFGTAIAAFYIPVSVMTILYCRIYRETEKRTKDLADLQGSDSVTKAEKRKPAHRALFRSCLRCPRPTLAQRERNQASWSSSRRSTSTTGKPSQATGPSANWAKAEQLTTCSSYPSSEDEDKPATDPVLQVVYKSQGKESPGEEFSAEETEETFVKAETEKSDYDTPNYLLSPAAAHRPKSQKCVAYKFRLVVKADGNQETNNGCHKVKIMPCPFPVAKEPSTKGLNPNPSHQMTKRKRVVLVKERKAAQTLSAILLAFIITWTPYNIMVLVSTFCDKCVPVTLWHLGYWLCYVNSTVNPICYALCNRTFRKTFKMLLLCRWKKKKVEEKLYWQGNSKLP", "assay": "Inhibition of Muscarinic M5 at 10 µM in the Eurofins-Panlabs radioligand binding assay (Eurofins_assay_253010)", "set-up": "ligand concentration 0.8 nM", "conditions": "Compound concentration 10.0 uM"}, "[12]": {"target": "Adenosine Transporter (Cavia porcellus) (UniProt H0V4R7+H0UUG1+H0V3Z5)", "assay": "Inhibition of Transporter, Adenosine at compound concentration of 10.0 uM in the Eurofins-Panlabs radioligand binding assay (Eurofins_assay_202000)", "format": "protein assay", "set-up": "ligand concentration 0.5 nM, non-specific ligand with concentration 5 uM Nitrobenzylthioinosine, incubation time 30 min, incubation temperature 25 C", "conditions": "Compound concentration 10.0 uM"}, "[13]": {"target": "Polyunsaturated fatty acid lipoxygenase ALOX12 (Homo sapiens) (UniProt P18054)", "assay": "Lipoxygenase 12-LO Eurofins-Panlabs enzyme assay", "set-up": "substrate with concentration", "conditions": "Compound concentration 10.0 uM"}, "[14]": {"target": "Protein kinase C alpha type (Homo sapiens) (UniProt P17252)", "assay": "Inhibition of Protein Serine/Threonine Kinase, PRKCA (PKCα) at 10 µM in the Eurofins-Panlabs enzyme assay (Eurofins_assay_180010)", "set-up": "substrate with concentration Histone, incubation time 10 min, incubation temperature 25 °C", "conditions": "Compound concentration […]"}, "[15]": {"target": "SNF-related serine/threonine-protein kinase (Homo sapiens) (UniProt Q9NRH2)", "conditions": "Compound concentration 1000.0 nM"}, "[16]": {"target": "Adenosine receptor A2a (Homo sapiens) (UniProt P29274)", "sequence (P29274 whole entry)": "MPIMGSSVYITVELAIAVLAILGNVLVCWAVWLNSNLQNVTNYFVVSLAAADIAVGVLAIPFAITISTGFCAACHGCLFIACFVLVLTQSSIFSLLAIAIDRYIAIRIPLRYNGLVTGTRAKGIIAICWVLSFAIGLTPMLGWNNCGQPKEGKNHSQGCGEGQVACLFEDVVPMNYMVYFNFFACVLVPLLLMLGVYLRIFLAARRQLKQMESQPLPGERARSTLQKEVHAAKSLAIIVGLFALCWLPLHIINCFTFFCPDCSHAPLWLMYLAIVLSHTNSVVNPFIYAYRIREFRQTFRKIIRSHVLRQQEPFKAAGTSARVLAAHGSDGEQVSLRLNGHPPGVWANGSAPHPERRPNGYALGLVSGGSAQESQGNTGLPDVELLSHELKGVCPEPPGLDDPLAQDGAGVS", "conditions": "Compound concentration 10.0 uM"}, "D(1A) dopamine receptor": {"target": "D(1A) dopamine receptor (Homo sapiens, UniProt P21728)", "sequence (P21728 whole entry)": "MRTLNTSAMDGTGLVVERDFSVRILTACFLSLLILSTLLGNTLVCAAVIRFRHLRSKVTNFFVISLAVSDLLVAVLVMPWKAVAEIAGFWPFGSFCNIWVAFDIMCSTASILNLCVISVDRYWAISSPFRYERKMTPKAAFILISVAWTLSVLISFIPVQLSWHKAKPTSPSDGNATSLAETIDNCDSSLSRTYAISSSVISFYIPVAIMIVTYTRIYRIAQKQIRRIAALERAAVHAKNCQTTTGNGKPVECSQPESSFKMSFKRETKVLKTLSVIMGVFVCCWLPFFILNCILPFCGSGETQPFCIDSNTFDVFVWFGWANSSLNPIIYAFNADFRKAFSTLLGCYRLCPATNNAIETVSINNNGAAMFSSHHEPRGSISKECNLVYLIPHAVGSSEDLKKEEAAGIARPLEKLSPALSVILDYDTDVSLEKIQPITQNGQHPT", "conditions": "Compound concentration 10.0 uM"}, "[17]": {"target": "Muscarinic acetylcholine receptor M3 (Homo sapiens) (UniProt P20309)", "sequence (P20309 whole entry, looked up)": "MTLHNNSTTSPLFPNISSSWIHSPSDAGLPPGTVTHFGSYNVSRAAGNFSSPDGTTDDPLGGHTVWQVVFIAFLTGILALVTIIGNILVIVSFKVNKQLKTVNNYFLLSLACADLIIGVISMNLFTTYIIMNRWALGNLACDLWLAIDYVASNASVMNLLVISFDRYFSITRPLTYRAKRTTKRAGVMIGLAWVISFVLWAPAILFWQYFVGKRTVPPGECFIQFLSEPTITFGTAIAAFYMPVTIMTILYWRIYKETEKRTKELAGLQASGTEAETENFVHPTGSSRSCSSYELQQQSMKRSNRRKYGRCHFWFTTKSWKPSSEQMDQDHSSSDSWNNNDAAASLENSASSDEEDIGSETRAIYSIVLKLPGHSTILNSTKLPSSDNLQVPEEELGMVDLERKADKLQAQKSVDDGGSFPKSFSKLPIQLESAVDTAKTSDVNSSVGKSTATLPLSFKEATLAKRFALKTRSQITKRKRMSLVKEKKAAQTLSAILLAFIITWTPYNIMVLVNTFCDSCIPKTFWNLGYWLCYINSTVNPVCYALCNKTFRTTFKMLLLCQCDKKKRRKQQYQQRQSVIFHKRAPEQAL", "conditions": "Compound concentration 10.0 uM"}}}
{"smiles": "O=C(O)c1cc(-c2ccc(C3CCNCC3)cc2)c2ccc(-c3ccc(C(F)(F)F)cc3)cc2c1", "note": "[PPTN]", "values": [{"measurement": "inhibition at 90 min, 10 µM", "setting": "[1]", "result": "20% (not active)"}, {"measurement": "inhibition", "setting": "[2]; Compound concentration 0.01 uM", "result": 0, "unit": "%"}, {"measurement": "inhibition", "setting": "[2]; Compound concentration 0.1 uM", "result": 13, "unit": "%"}, {"measurement": "inhibition", "setting": "[2]; Compound concentration 1.0 uM", "result": 65, "unit": "%"}, {"measurement": "inhibition", "setting": "[2]; Compound concentration 10.0 uM", "result": 97, "unit": "%"}, {"measurement": "IC50", "setting": "[3]", "result": 560, "unit": "nM"}, {"measurement": "Ki", "setting": "[3]", "result": 230, "unit": "nM"}, {"measurement": "inhibition", "setting": "[4]", "result": 2, "unit": "%"}, {"measurement": "inhibition", "setting": "[5]", "result": 1, "unit": "%"}, {"measurement": "inhibition at 60 min, 10 µM", "setting": "[6]", "result": "-10% (not active)"}, {"measurement": "inhibition", "setting": "[7]", "result": -10, "unit": "%"}, {"measurement": "inhibition", "setting": "[8]; Compound concentration 0.01 uM", "result": -4, "unit": "%"}, {"measurement": "inhibition", "setting": "[8]; Compound concentration 0.1 uM", "result": -2, "unit": "%"}, {"measurement": "inhibition", "setting": "[8]; Compound concentration 1.0 uM", "result": 6, "unit": "%"}, {"measurement": "inhibition", "setting": "[8]; Compound concentration 10.0 uM", "result": 63, "unit": "%"}, {"measurement": "IC50", "setting": "[9]", "result": 6880, "unit": "nM"}, {"measurement": "Ki", "setting": "[9]", "result": 1000, "unit": "nM"}, {"measurement": "inhibition at 10 µM", "setting": "[10]", "result": "-1% (not active)"}, {"measurement": "inhibition", "setting": "[11]", "result": 39, "unit": "%"}, {"measurement": "inhibition", "setting": "[12]", "result": 9, "unit": "%"}, {"measurement": "inhibition", "setting": "[13]", "result": 30, "unit": "%"}, {"measurement": "inhibition", "setting": "[14]", "result": 29, "unit": "%"}, {"measurement": "residual activity", "setting": "[15]", "result": 71, "unit": "%"}, {"measurement": "inhibition", "setting": "[16]", "result": 38, "unit": "%"}, {"measurement": "inhibition", "setting": "D(1A) dopamine receptor", "result": 22, "unit": "%"}, {"measurement": "inhibition", "setting": "[17]", "result": 11, "unit": "%"}]}
